# Experimental data: patent publication US6207656A, “Vitamin D analogues and their neuronal effects” (Cephalon, Inc., priority 1998, dated 2001)
# Tests used:
# [1] = test system: rats having bilateral lesions of the fimbria-fornix; experiment: Locomotor activity (hyperactivity) after bilateral fimbria-fornix lesion; format: in vivo, rat
# Experimental: To determine whether low calcemic doses of vitamin D3 analogs would improve lesion-induced behavioral deficits, Compound (A) (0.1 and 1.0 μg/kg/day) was administered orally once a day (26 days) to rats having bilateral lesions of the fimbria-fornix. Bilateral lesions of the fimbria-fornix cause rats to become hyperactive. To test for hyperactivity, rats were placed in a box marked with squares, where it was observed how many squares the rats entered in a five minute period.
# hippocampal ChAT = experiment: Fimbria fornix lesion model, hippocampal ChAT activity; format: in vivo, rat; details: oral gavage daily 14 days, FIGS. 4 to 8; * p<0.05 vs vehicle-treated lesioned controls
# Text: The fimbria fornix lesion model is an established protocol for assessing cholinergic neuronal survival in the basal forebrain. […] Contained within the region of the brain 10 are cholinergic neurons 16. A healthy cholinergic neuron has a cell body 18, and one or more axons 20. Each of the axons 20 have a free end, referred to as a terminal 22, that extends into the hippocampus 14. In the fimbria fornix lesion model, damaged cholinergic neurons 24 are produced by transecting a portion of the axons 20 at a location 26 between the hippocampus 14 and the cell body 18. As a result of this transection, damaged cell bodies 28 are produced that no longer have cholinergic axons 30 and terminals 32. These damaged cell bodies 28, also lose cholinergic cell body markers 34 and stop producing ChAT. The fimbria fornix lesion model is used to study methods of restoring ChAT production, such as through stimulating increased production of ChAT in the healthy cholinergic neurons, and/or through restoring normal functioning of the damaged cholinergic neurons 24.
# For the studies described herein, animals were anesthetized with pentobarbital and placed in a stereotaxic apparatus. The skull was opened on the left side, a knife was positioned 1.2 mm posterior to bregma and 0.6 mm lateral to the midline. The knife was lowered to 4.5 mm below the dura into the brain and moved laterally 2 mm partially transecting the fimbria fornix. After 14 days of administration of the test compounds by oral gavage, the hippocampus was removed and homogenized.
# The hippocampal ChAT activity is expressed as a percentage of the hippocampal ChAT activity of the […] control side (i.e., lesion control) in FIGS. 4 to 8.
# NGF mRNA = experiment: Induction of NGF mRNA expression in rats; format: in vivo, Sprague Dawley rats; details: 8 days (FIG. 1)
# Experimental: Five hours after the last dose, the animals were sacrificed by decapitation. Each brain was quickly removed and chilled in ice-cold saline. The brain was cut into 2 mm thick coronal sections. Portions of the hippocampus, encompassing the CA1 region, and the medial septum were removed by punching 2 mm^3 sections using a calibrated tissue punch. Punched sections were immediately frozen on dry ice and then stored at -70° C. RNA was prepared from dissected tissue pieces.
# Punches of tissue were homogenized in […] RNAzolB™ (Bioteex Laboratories, Houston, Tex.) using a homogenizer (Tekmar, Germany) until fully homogenized and then 250 μl RNAzilB™ was added. Typically, punches from the corresponding regions of brains of 2 to 3 animals were combined together. RNA was prepared as recommended by the manufacturer (Biotecx Laboratories). Following isopropanol precipitation, RNA was reprecipitated with ethanol and finally resuspended in 25-50 μL of water. Concentration of RNA was measured spectrophotometrically and the quality of RNA was visualized on a nondenaturing agarose gel. Equal amounts of RNA, usually 1-2 μg, were reverse transcribed using Superscript II™ (Gibco BRL), as recommended by the manufacturer. The assay was terminated by incubation at 95° C. 1 min. at 55-60° C. (depending on the primer set) and 2 min. at 72° C. […] After the assay, samples were electrophoresed on 5% nondenaturing acrylamide gels. Gels were dried and the resulting labeled bands were visualized on a phosphorimager (Storm 840, Molecular Dynamics, Sunnyvale, Calif.). The following primers were used: […]
# Nerve Growth Factor (NGF). Primers were designed against the rat sequence.
compound,measurement,setting,value
"C=C1/C(=C\C=C2/CCC[C@]3(C)[C@@H]([C@@H](C)[C@@H](C#CCC(O)(CC)CC)OCC)CC[C@@H]23)C[C@@H](O)C[C@@H]1O [Compound (A), 1(S),3(R)-dihydroxy-20(R)-(1-ethoxy-5-ethyl-5-hydroxy-2-heptyn-1-yl)-9,10-seco-pregna-5(Z),7(E),10(19)-triene]",locomotor activity (squares entered per 5 minutes),"[1]; 1.0 μg/kg/day oral, 26 days",reduced locomotor activity
same,locomotor activity caused by fimbria fornix lesions,"[1]; FIG. 10 legend, oral",reduces locomotor activity
same,hippocampal ChAT activity vs lesioned controls,hippocampal ChAT,significant increase in CHAT activity
same,production of NGF mRNA,NGF mRNA; 0.3 μg/kg oral,did not facilitate the production of NGF mRNA
same,production of NGF mRNA,NGF mRNA; 1.0 and 3.0 μg/kg oral,facilitated the production of NGF mRNA
